Source: patent US9040524B2, “Antifungal 5,6-dihydro-4H-pyrrolo[1,2-a][1,4]-benzodiazepines and 6H-pyrrolo[1,2-a][1,4]benzodiazepines substituted with bicycle benzene derivatives” (JANSSEN PHARMACEUTICA NV, priority 2010, dated 2015)

Tests used:
Aspergillus fumigatus = assay: Antifungal activity in vitro, resazurin growth inhibition screen: Aspergillus fumigatus; format: cell-based; details: Aspergillus fumigatus B42928; for IC50: read-out: Inf. E pIC50 (converted)
How it was run: (§1)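 Compounds were serially diluted 2- or 4-fold from DMSO stock with an intermediate water step, tested up to 64 μM final. Each well received 10^3 cfu of cryopreserved fungus in RPMI-MOPS medium. Resazurin served as the growth read-out, with drug-free culture as 100% growth and medium alone as 0%.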

[1] = tested on: Trichophyton mentagrophytes; assay: Antifungal activity in vitro, resazurin growth inhibition screen: Trichophyton mentagrophytes; format: cell-based; details: Trichophyton mentagrophytes B70554; for IC50: read-out: Inf. G pIC50 (converted)
How it was run: as §1

Rhizomucor miehei = assay: Antifungal activity in vitro, resazurin growth inhibition screen: Rhizomucor miehei; format: cell-based; details: Rhizomucor miehei IHEM13391; for IC50: read-out: Inf. K pIC50 (converted)
Method: (§2) The standard susceptibility screen was performed in 96-well plates (U-bottom, Greiner Bio-One). Serial dilutions (2-fold or 4-fold) of 20 mM compound stock solutions were made in 100% DMSO, followed by an intermediate dilution step in water. These serial dilutions (10 μl) were then spotted onto test-plates that could be stored in the dark at 4° C. for a maximum period of 2 weeks. An adequate broad dose-range was included with 64 μM as the highest in-test concentration. […] The different fungal species/isolates (Table 3a) were cryopreserved and 1/1000 diluted in medium just prior to use. A standard inoculum of 200 μl containing 10^3 colony-forming unit (cfu) was then added to each well. A positive control (100% growth=fungal culture without antifungal) and a negative control (0% growth=RPMI-MOPS medium) were included on each plate.

Sporothrix schenkii = assay: Antifungal activity in vitro, resazurin growth inhibition screen: Sporothrix schenkii; format: cell-based; details: Sporothrix schenkii B62482; for IC50: read-out: Inf. A pIC50 (converted)
How it was run: as §1

Rhizopus oryzae = assay: Antifungal activity in vitro, resazurin growth inhibition screen: Rhizopus oryzae; format: cell-based; details: Rhizopus oryzae IHEM5223; for IC50: Rhizopus arrhizus, read-out: Inf. J pIC50 (converted)
Method: as §2

Microsporum canis = assay: Antifungal activity in vitro, resazurin growth inhibition screen: Microsporum canis; format: cell-based; details: Microsporum canis B68128; for IC50: read-out: Inf. B pIC50 (converted)
How it was run: as §1

Candida parapsilosis = assay: Antifungal activity in vitro, resazurin growth inhibition screen: Candida parapsilosis; format: cell-based; details: Candida parapsilosis B66126; for IC50: Lodderomyces parapsilosis, read-out: Inf. D pIC50 (converted)
How it was run: as §1

Cryptococcus neoformans = assay: Antifungal activity in vitro, resazurin growth inhibition screen: Cryptococcus neoformans; format: cell-based; details: Cryptococcus neoformans B66663; for IC50: read-out: Inf. F pIC50 (converted)
How it was run: as §1

Scedosporium prolificans = assay: Antifungal activity in vitro, resazurin growth inhibition screen: Scedosporium prolificans; format: cell-based; details: Scedosporium prolificans IHEM21157; for IC50: Lomentospora prolificans, read-out: Inf. I pIC50 (converted)
Method: as §2

Trichophyton rubrum = assay: Antifungal activity in vitro, resazurin growth inhibition screen: Trichophyton rubrum; format: cell-based; details: Trichophyton rubrum B68183; for IC50: read-out: Inf. C pIC50 (converted)
How it was run: as §1

Scedosporium apiospermum = assay: Antifungal activity in vitro, resazurin growth inhibition screen: Scedosporium apiospermum; format: cell-based; details: Scedosporium apiospermum IHEM3817; for IC50: read-out: Inf. H pIC50 (converted)
Method: as §2

SMILES	IC50 (Aspergillus fumigatus) [nM]	IC50 [1] [nM]	IC50 (Rhizomucor miehei) [nM]	melting point	IC50 (Sporothrix schenkii) [nM]	IC50 (Rhizopus oryzae) [nM]	IC50 (Microsporum canis) [nM]	IC50 (Candida parapsilosis) [nM]	IC50 (Cryptococcus neoformans) [nM]	IC50 (Scedosporium prolificans) [nM]	IC50 (Trichophyton rubrum) [nM]	IC50 (Scedosporium apiospermum) [nM]	also measured
FC1(F)CCc2cc(C3=NCc4c(Cl)cccc4-n4cccc43)ccc2O1 [Compound 69, 7-chloro-4-(2,2-difluoro-3,4-dihydro-2H-1-benzopyran-6-yl)-6H-pyrrolo[1,2-a]-[1,4]benzodiazepine]	129	380	468	199.7 to 201.2 °C	1050	1200	129	708	95.5	708	123	229	
O=C1OCc2ccc(C3=NCc4c(Cl)cc(Cl)cc4-n4cccc43)cc21 [Compound 64, 6-(7,9-dichloro-6H-pyrrolo[1,2-a][1,4]benzodiazepin-4-yl)-1 (3H)-isobenzofuranone]	> 64600	> 64600		210.5 to 212 °C	> 64600		> 64600	> 64600	> 64600		> 64600		
Clc1cccc2c1-n1cccc1C(c1ccc3c(c1)CCCO3)=NC2 [Compound 43, 10-chloro-4-(3,4-dihydro-2H-1-benzopyran-6-yl)-6H-pyrrolo[1,2-a][1,4]benzo-diazepine]	141	219		103.7 °C	912		158	4370	209		129		
O=C1CCCc2cc(C3=NCc4ccc(Cl)cc4-n4cccc43)ccc21 [Compound 60, 6-(9-chloro-6H-pyrrolo[1,2-a][1,4]benzodiazepin-4-yl)-3,4-dihydro-1 (2H)-naphthalenone]	> 64600	> 64600		> 280 °C	30200		> 64600	3630	7080		> 64600		
Clc1cc(Cl)c2c(c1)CN=C(c1ccc3c(c1)CCC3)c1cccn1-2 [Compound 25, 8,10-dichloro-4-(2,3-dihydro-1H-inden-5-yl)-6H-pyrrolo[1,2-a][1,4]benzodiazepine]	155	380	39800	178.5 to 180.2 °C	2000	> 64600	832	> 64600	1000		794	> 64600	
Clc1cccc2c1CN=C(c1ccc3c(c1)OCC3)c1cccn1-2 [Compound 36, 7-chloro-4-(2,3-dihydro-6-benzofuranyl)-6H-pyrrolo[1,2-a][1,4]benzodiazepine]	2000	240	> 64600	180.5 to 181.2 °C	12900	> 64600	676	20900	50100	1200	132	2820	
O=C1OCc2cc(C3=NCc4c(Cl)cccc4-n4cccc43)ccc21 [Compound 65, 5-(7-chloro-6H-pyrrolo[1,2-a][1,4]benzodiazepin-4-yl)-1(3H)-isobenzofuranone]	372	1910	> 64600	251.2 to 253 °C	7760	> 64600	2040	5130	10200	589	1820	759	
Cn1c(=O)oc2ccc(C3=NCc4c(Cl)cccc4-n4cccc43)cc21 [Compound 80, 5-(7-chloro-6H-pyrrolo[1,2-a][1,4]benzodiazepin-4-yl)-3-methyl-2(3H)-benzoxazolone]	562	5370	> 64600	218.6 to 221 °C	9120	> 64600	1580	22400	> 64600	22400	1150	56200	
Fc1cc(Cl)c2c(c1)-n1cccc1C(c1ccc3c(c1)CCC3(F)F)=NC2 [Compound 88, 7-chloro-4-(1,1-difluoro-2,3-dihydro-1H-inden-5-yl)-9-fluoro-6H-pyrrolo[1,2-a]-[1,4]benzodiazepine]	417	871	> 64600	170.2 to 171.8 °C	53700	> 64600	537	> 64600	407	2570	447	170	
Clc1cccc2c1CN=C(c1ccc3c(c1)CCC3)c1cccn1-2 [Compound 20, 7-chloro-4-(2,3-dihydro-1H-inden-5-yl)-6H-pyrrolo[1,2-a][1,4]benzodiazepine]	269		13800	181.3 to 182.7 °C	2000	> 11200	129	339	380	851	70.8	8910	
O=C1CCc2ccc(C3=NCc4c(Cl)cccc4-n4cccc43)cc21 [Compound 55, 6-(7-chloro-6H-pyrrolo[1,2-a][1,4]benzodiazepin-4-yl)-2,3-dihydro-1H-inden-1-one]	> 64600	25100		214 to 217 °C	> 64600		3890	> 64600	> 64600		1950		
Clc1ccc(Cl)c2c1CN=C(c1ccc3c(c1)CCC3)c1cccn1-2 [Compound 24, 7,10-dichloro-4-(2,3-dihydro-1H-inden-5-yl)-6H-pyrrolo[1,2-a][1,4]benzodiazepine]	> 32400	6030		194 to 194.2 °C	> 32400		8910	> 32400	> 32400		3980		
Clc1ccc2c(c1Cl)CN=C(c1ccc3c(c1)CCC3)c1cccn1-2 [Compound 22, 7,8-dichloro-4-(2,3-dihydro-1H-inden-5-yl)-6H-pyrrolo[1,2-a][1,4]benzodiazepine]	14100			199.3 to 201.6 °C	> 32400		3020	> 32400	2510		1000		
O=C1OCc2ccc(C3=NCc4c(Cl)cccc4-n4cccc43)cc21 [Compound 62, 6-(7-chloro-6H-pyrrolo[1,2-a][1,4]benzodiazepin-4-yl)-1(3H)-isobenzofuranone]	> 64600	> 64600		107.9 °C (dec.)	> 64600		> 64600	> 64600	> 64600		> 64600		
Clc1cc(Cl)c2c(c1)CN=C(c1ccc3c(c1)CCO3)c1cccn1-2 [Compound 48, 8,10-dichloro-4-(2,3-dihydro-5-benzofuranyl)-6H-pyrrolo[1,2-a][1,4]benzo-diazepine]													Inf. E pIC50 (Aspergillus fumigatus): 5.00; Inf. G pIC50 [1]: 6.29; Inf. K pIC50 (Rhizomucor miehei): <4.19; Inf. A pIC50 (Sporothrix schenkii): 5.40; Inf. J pIC50 (Rhizopus oryzae): <4.19; Inf. B pIC50 (Microsporum canis): 6.30; Inf. D pIC50 (Candida parapsilosis): <4.19; Inf. F pIC50 (Cryptococcus neoformans): 5.70; Inf. I pIC50 (Scedosporium prolificans): 5.79; Inf. C pIC50 (Trichophyton rubrum): 6.78; Inf. H pIC50 (Scedosporium apiospermum): 4.94
CN1C(=O)C(C)(C)c2cc(C3=NCc4c(Cl)cccc4-n4cccc43)ccc21 [Compound 1, 5-(7-chloro-6H-pyrrolo[1,2-a][1,4]benzodiazepin-4-yl)-1,3-dihydro-1,3,3-trimethyl-2H-indol-2-one]	2240	26300		233.7 to 235.1 °C	> 64600		9330	> 64600	4270		7940		
Fc1cccc2c1CN=C(c1ccc3c(c1)CCC(F)(F)O3)c1cccn1-2 [Compound 70, 4-(2,2-difluoro-3,4-dihydro-2H-1-benzopyran-6-yl)-7-fluoro-6H-pyrrolo[1,2-a]-[1,4]benzodiazepine]	> 64600	> 64600		158.9 to 159.3 °C	> 64600		64600	759	955		> 64600		
